From patent US11464763B2, “Parasiticidal compositions comprising an isoxazoline active agent, methods and uses thereof” (BOEHRINGER INGELHEIM ANIMAL HEALTH USA INC., priority 2011, dated 2022)

Legend:
Haematobia irritans = assay: Pour-on efficacy against Haematobia irritans (horn fly) in cattle (Example 14); format: in vivo; conditions: for % Reduction: Group 2: pour-on 10% in DES, 1 ml/10 kg
Description: The efficacy of a pour-on formulation of the invention comprising isoxazoline Compound A was tested and compared with an untreated control. Two healthy, female Angus crossbread cattle of one year of age weighing between 224 to 330 kg were used in each study group. Cattle in Group 1 were untreated (control) and cattle in Group 2 were treated with a pour-on formulation comprising Compound A at a concentration of 10% (w/v) in DES at a dose of 1 ml/10 kg once on Day 0. The formulation was applied by measuring the required amount of the solution into a marked disposable syringe and applying the material evenly along the mid-line of the back of each animal from the withers to the tail head. Each animal was infested with approximately 200 horn flies released into each of the animal rooms on Day 1, approximately 24 hours post treatment. Approximately 200 horn flies were released again on Days 7, 14, 21, 28 and 36. Horn fly counts were performed at 5 hours and 24 hours after each infestation. Tables 14A and 14B below show the efficacy of the pour-on formulation of the invention.

[1] = system: Sarcoptes scabiei var. bovis; assay: Pour-on efficacy against Sarcoptes scabiei var. bovis (mange mites) in cattle (Example 17); format: in vivo; conditions: for % Reduction: live mite counts in scrapings
Description: The efficacy of two pour-on formulations of the invention comprising isoxazoline Compound A at doses of 2.5 mg/kg and 10 mg/kg were tested against natural and induced infestations with Sarcoptes scabiei var. bovis (mange mites) in cattle compared with an untreated control. Four healthy head of cattle weighing between 100 to 300 kg were used in each study group. Cattle in Group 1 were untreated (control). Cattle in Group 2 were treated on Day 0 with a pour-on formulation comprising Compound A at a concentration of 2.5% (w/v) in DES at a dose of 2.5 mg/kg; and cattle in Group 3 were treated on Day 0 with a pour-on formulation comprising Compound A at a concentration of 10% (w/v) in DES at a dose of 10 mg/kg. The formulation was applied by measuring the required amount of the solution into a marked disposable syringe and applying the material evenly along the mid-line of the back of each animal from the withers to the tail head.
Live (motile) Sarcoptes scabiei var. bovis (mange mites) were counted on days 7, 14, 20, 27, 34, 41, 48 and 55 in scrapings collected from the edges of active lesions or, if lesions regressed during the study, from the area where active lesions were at the commencement of the study. Scrapings were made from six sites with an area of at least 3 cm×3 cm in size on each animal. Tables 18A and 18B below show the efficacy of the two pour-on formulations against Sarcoptes scabiei var. bovis over 56 days. […] The long lasting efficacy of the pour-on formulations of the invention against Sarcoptes scabiei var. bovis from one topical treatment is unexpected and surprising.

[2] = Accelerated stability of Cmpd. A in solvents at 50° C.; format: physicochemical
Text: An important aspect of the invention is to provide a multiple-use container comprising a topical composition of the invention, from which accurate single dose aliquots of the long lasting topical formulations may be administered. The formulation must remain stable with repetitive exposure to the outside environment, particularly oxygen and water. This embodiment may be particularly useful with the very long lasting formulations of the invention that require administration to an animal infrequently, such as once every 3-6 months, or similar. Some solvents such as ethers (including DMI, Transcutol® and the like) give rise to peroxides, which then yield ketones and aldehydes that may be further degraded to acids. The presence of acids may contribute to the degradation of acid hydrolysis-susceptible molecules, including isoxazoline active agents. Thus, formulation stability is particularly important for the multi-dose container application, where the formulations can be exposed to oxygen and water during multiple rounds of opening and closing. […]

O=C(CNC(=O)c1ccc(C2=NOC(c3cc(Cl)cc(C(F)(F)F)c3)(C(F)(F)F)C2)c2ccccc12)NCC(F)(F)F (centres unmarked) [Compound A, 4-[5-[3-chloro-5-(trifluoromethyl)phenyl]-4,5-dihydro-5-(trifluoromethyl)-3-isoxazolyl]-N-[2-oxo-2-[(2,2,2-trifluoroethyl)amino]ethyl]-1-naphthalanecarboxamide]
Efficacy against horn flies (Haematobia irritans; 24 hours after infestation through the end of the study (day 36)): at least 90%
% Reduction (Haematobia irritans; Day 1 (5 h)): 81.2%
% Reduction (Haematobia irritans; Day 2 (24 h)): 99.6%
% Reduction (Haematobia irritans; Day 7 (5 h)): 84.2%
% Reduction (Haematobia irritans; Day 8 (24 h)): 99.7%
% Reduction (Haematobia irritans; Day 14 (5 h)): 89.5%
% Reduction (Haematobia irritans; Day 15 (24 h)): 99.2%
% Reduction (Haematobia irritans; Day 21 (5 h)): 67.6%
% Reduction (Haematobia irritans; Day 22 (24 h)): 97.4%
% Reduction (Haematobia irritans; Day 28 (5 h)): 11.7%
% Reduction (Haematobia irritans; Day 29 (24 h)): 90.4%
efficacy against Sarcoptes scabiei var. bovis ([1]; 10% (w/v) formulation, day 14 through day 55): 100%
efficacy against Sarcoptes scabiei var. bovis ([1]; both pour-on formulations, starting on day 7 through at least day 56): higher than 95%
% Reduction ([1]; Group 2: pour-on 2.5% (w/v) in DES, 2.5 mg/kg, Day 7): 96.7%
% Reduction ([1]; Group 2: pour-on 2.5% (w/v) in DES, 2.5 mg/kg, Day 14): 98.2%
% Reduction ([1]; Group 2: pour-on 2.5% (w/v) in DES, 2.5 mg/kg, Day 20): 99.6%
% Reduction ([1]; Group 2: pour-on 2.5% (w/v) in DES, 2.5 mg/kg, Day 27): 100%
% Reduction ([1]; Group 2: pour-on 2.5% (w/v) in DES, 2.5 mg/kg, Day 34): 100%
% Reduction ([1]; Group 2: pour-on 2.5% (w/v) in DES, 2.5 mg/kg, Day 41): 100%
% Reduction ([1]; Group 2: pour-on 2.5% (w/v) in DES, 2.5 mg/kg, Day 48): 100%
% Reduction ([1]; Group 2: pour-on 2.5% (w/v) in DES, 2.5 mg/kg, Day 55): 100%
% Reduction ([1]; second line of the table, "Group 2", pour-on in DES, Day 7): 96.8%
% Reduction ([1]; second line of the table, "Group 2", pour-on in DES, Day 14): 100%
% Reduction ([1]; second line of the table, "Group 2", pour-on in DES, Day 20): 100%
% Reduction ([1]; second line of the table, "Group 2", pour-on in DES, Day 27): 100%
% Reduction ([1]; second line of the table, "Group 2", pour-on in DES, Day 34): 100%
% Reduction ([1]; second line of the table, "Group 2", pour-on in DES, Day 41): 100%
% Reduction ([1]; second line of the table, "Group 2", pour-on in DES, Day 48): 100%
% Reduction ([1]; second line of the table, "Group 2", pour-on in DES, Day 55): 100%
efficacy against Sarcoptes scabiei var. bovis ([1]; lower concentration pour-on formulation (Group 2), day 27 through the end of the study): 100%
change in assay, accelerated stability study ([2]; 12% (w/v) solution in DMI, eleven week, 50° C., clear glass containers): no significant change in assay
stability in solvents ([2]; DES, DIPA, DMI, triacetin, GF and propylene carbonate, 50° C. in glass bottles): stable
